“And” between values parts separate entries of the source, which are not always exact repeats. Equal entries are not always repeated.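 The compound was tested at five concentrations on cells cultured in 96-well plates, with a 48-hour exposure period. At the GI50, growth is halved. TGI denotes the concentration required for complete inhibition of growth.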

Common to all, as to assay: inhibition of tumour cell growth, NCI panel, 48 h
For assay [1], the system named is HCT-116 colon.
In assay [2] the test system is HOP-62 NSCLC.
The test system of assay [3] is HT29 colon.
The test system of assay [4] is K-562 leukemia.
In assay [5] the test system is NCI-H226 lung.
Assay [6] relates to NCI-H23 lung.
The test system of assay [7] is NCI/ADR-RES ovarian.
Assay [8] relates to OVCAR-3 ovarian.
Assay [9] deals with SK-OV-3 ovarian.
For assay [10], the system named is U251 CNS.

Consider `O=c1c2ccccc2nc(-c2ccccc2Cl)n1-c1nnc(C(F)(F)F)s1`, for which the GI50 is 2.7 µM in assay [1]; 6.09 µM in assay [2]; 3.18 µM in [3]; 3.77 µM in assay [4]; 2.4 µM in assay [5]; 3.23 µM in assay [6]. The GI50 is 3.13 µM in assay [7], 3.25 µM in assay [8], 4.01 µM in [9] and 2.46 µM in assay [10]. Besides, the TGI in assay [1] is 10.1 µM; in assay [2], 29.7 µM; in [3] it was 13.6 µM; in assay [4] it was greater than 100 µM; in assay [5], 8.55 µM; in assay [6], 17.3 µM. Besides, the TGI in [7] was greater than 100 µM; in assay [8], 11.4 µM; in [9], 39 µM; in assay [10] it was 12.9 µM.
Turning to `Nc1cc(C(F)(F)F)c(-c2cc(N3CCOCC3)nc(N3CCOCC3)n2)cn1`, the GI50 was 1.21 µM and 1.12 µM in assay [1]; 0.385 µM and 0.793 µM in assay [2]; 0.547 µM and 0.531 µM in assay [3]; 0.875 µM and 0.58 µM in assay [4]; 0.839 µM and 0.592 µM in assay [5]; 1.17 µM and 1.28 µM in assay [6]. Besides, the GI50 in [7] is 0.753 µM and 0.856 µM; in assay [8], 0.919 µM and 1.03 µM; in assay [9] it was 0.235 µM and 0.654 µM; in [10] it was 1.51 µM and 1.78 µM. The TGI is > 10 µM and 9.38 µM in assay [1]; 4.31 µM and 4.87 µM in assay [2]; > 7.41 µM and 3.66 µM in [3]; greater than 100 µM in assay [4]; 4.42 µM and 4.6 µM in assay [5]; greater than 84.6 µM in [6]. Besides, the TGI in assay [7] is 3.45 µM and > 21.5 µM; in assay [8], 4.71 µM and 4.45 µM; in assay [9], 1.58 µM and 2.94 µM; in [10], greater than 25 µM.
`CC[C@]1(O)CC2CN(CCc3c([nH]c4ccccc34)[C@@](C(=O)OC)(c3cc4c(cc3OC)N(C=O)[C@H]3[C@@](O)(C(=O)OC)[C@H](OC(C)=O)[C@]5(CC)C=CCN6CC[C@]43[C@@H]65)C2)C1` (some centres undefined): the GI50 in assay [1] is less than 0.005 µM; in [2] it was 0.0054 µM; in [3], less than 0.005 µM; in [4], less than 0.005 µM; in assay [5], less than 0.005 µM; in [6], less than 0.005 µM. The GI50 in assay [7] was 0.698 µM; in assay [8] it was less than 0.005 µM; in assay [9], less than 0.005 µM; in [10] it was less than 0.005 µM. Moreover, the TGI in assay [1] was greater than 50 µM; in assay [2] it was greater than 44.2 µM; in [3] it was 0.0195 µM; in assay [4] it was greater than 50 µM; in [5], 0.0319 µM; in assay [6], greater than 50 µM. Besides, the TGI was greater than 13.3 µM in [7] and 0.0185 µM in assay [9].
With `CCN(CC)c1ccc2nc3c4ccccc4c(=O)cc-3n(-c3ccccc3)c2c1`, the GI50 is 1.35 µM in assay [1]; 1.08 µM in assay [2]; 0.902 µM in assay [3]; 2.41 µM in assay [4]; 2.04 µM in assay [5]; 2.18 µM in assay [6]. For the same compound, the GI50 in assay [7] was 2.34 µM; in assay [8], 1.16 µM; in [9], 1.91 µM; in assay [10] it was 1.49 µM. For the same compound, the TGI in assay [1] is 3.27 µM; in assay [2], 3.6 µM; in assay [3], 8.42 µM; in assay [4], greater than 100 µM; in [5], 5.81 µM; in assay [6] it was 9.09 µM. Also, the TGI is 7.86 µM in [7], 3.85 µM in assay [8], 5.92 µM in [9] and 6.61 µM in [10].
Take `Cc1ccc(Cl)cc1NC(=O)c1cc2ccccc2cc1O`: the GI50 in assay [1] is 0.284 µM; in assay [2], 0.224 µM; in assay [3] it was 3.37 µM; in assay [4], 0.365 µM; in assay [5] it was 0.417 µM; in assay [6], 0.234 µM. The GI50 in [7] is 0.266 µM; in [8] it was 0.313 µM; in [9], 0.406 µM; in assay [10] it was 0.319 µM. For the same compound, the TGI in [1] came to 0.924 µM; in [2], 0.673 µM; in [3], 14.2 µM; in assay [4] it was 10.1 µM; in assay [5], 3.1 µM; in [6], 0.707 µM. Moreover, the TGI in assay [7] is 1.27 µM; in [8], 1.02 µM; in [9] it was 2.95 µM; in [10], 4.12 µM.
For the compound `Cc1c(-c2ccc(O)cc2)oc(=O)c2ccc(O)cc12`, the GI50 in assay [1] was 38 µM; in assay [2] it was 41 µM; in assay [3], 73.3 µM; in assay [4], 38.5 µM; in assay [5], greater than 100 µM; in assay [7], 49.7 µM. Moreover, the results for the GI50 in assay [8], in assay [9] and in assay [10] were 51.5 µM, greater than 100 µM and 63.8 µM, respectively. Further, the TGI in assay [1], in [2], in assay [3], in [4], in assay [5] and in [7] was greater than 100 µM in each case. Moreover, the TGI in [8], in [9] and in assay [10] was greater than 100 µM each time.
For the compound `N#Cc1ccccc1C#C/C=C\C#CC#C/C=C\C#Cc1ccccc1C#N`, the GI50 in assay [1] is 13.6 µM; in [2], 16.5 µM; in assay [3], 3.39 µM; in [5] it was 29.7 µM; in [6] it was 3.14 µM; in assay [7] it was 18.5 µM. The GI50 was 4.55 µM in assay [8], 28.6 µM in assay [9] and 12.4 µM in [10]. Also, the TGI in [1] is 30.2 µM; in [2], 43.5 µM; in assay [3], 94.4 µM; in assay [5], greater than 100 µM; in [6], 19.7 µM; in [7], 68.2 µM. For the same compound, the results for the TGI in [8], in assay [9] and in assay [10] were 21.4 µM, greater than 100 µM and 47.1 µM, respectively.

Values taken from PubChem BioAssay (NCI).
